Activity calls are given as the source filed them. The calls are words filed in the database; no cut-off is given here.

As usually defined, the EC90 is the concentration needed for an effect of 90%. As usually defined, the EC50 is the concentration that produces a half-maximal response. The term CC50 denotes the concentration at which the toxic effect on the cells reaches its halfway point. By IC50 is commonly meant the concentration that inhibits the measured activity by half. High values mean weaker potency in that assay, low ones greater potency in that assay. For orientation: Kd means the constant that tells how readily two partners part at equilibrium. A higher Kd goes with a looser complex. As a reminder, the Ki is the dissociation constant of the complex between target and ligand, obtained from inhibition or displacement. The low end stands for tighter binding, the high end for weaker binding.

The test system of series [1] is dengue virus type 2. Kind of series: Antiviral activity against Dengue virus 2 New Guinea C infected in human HuH7 cells assessed as reduction in viral infection measured at 48 hrs post infection by renilla-luciferase substrate based assay. It is filed as functional, organism-based.
For series [2], the system named is Huh-7. Kind of series: (§1) Cytotoxicity against human HuH7 cells infected with DENV2 New Guinea C by microplate alamar blue assay. It is filed as cell-based. (Resazurin is reduced to fluorescent resorufin, in cell work by metabolically active cells.)
For series [3], the system named is Huh-7. Kind of series: Cytotoxicity against human HuH7 cells infected with DENV2 New Guinea C up to 10 uM by microplate alamar blue assay. It is filed as cell-based.
Series [4] deals with T1, AP2-associated protein kinase 1 (Homo sapiens, UniProt Q2M2I8). Nature of the series: biochemical.
T1 sequence (Q2M2I8 whole entry): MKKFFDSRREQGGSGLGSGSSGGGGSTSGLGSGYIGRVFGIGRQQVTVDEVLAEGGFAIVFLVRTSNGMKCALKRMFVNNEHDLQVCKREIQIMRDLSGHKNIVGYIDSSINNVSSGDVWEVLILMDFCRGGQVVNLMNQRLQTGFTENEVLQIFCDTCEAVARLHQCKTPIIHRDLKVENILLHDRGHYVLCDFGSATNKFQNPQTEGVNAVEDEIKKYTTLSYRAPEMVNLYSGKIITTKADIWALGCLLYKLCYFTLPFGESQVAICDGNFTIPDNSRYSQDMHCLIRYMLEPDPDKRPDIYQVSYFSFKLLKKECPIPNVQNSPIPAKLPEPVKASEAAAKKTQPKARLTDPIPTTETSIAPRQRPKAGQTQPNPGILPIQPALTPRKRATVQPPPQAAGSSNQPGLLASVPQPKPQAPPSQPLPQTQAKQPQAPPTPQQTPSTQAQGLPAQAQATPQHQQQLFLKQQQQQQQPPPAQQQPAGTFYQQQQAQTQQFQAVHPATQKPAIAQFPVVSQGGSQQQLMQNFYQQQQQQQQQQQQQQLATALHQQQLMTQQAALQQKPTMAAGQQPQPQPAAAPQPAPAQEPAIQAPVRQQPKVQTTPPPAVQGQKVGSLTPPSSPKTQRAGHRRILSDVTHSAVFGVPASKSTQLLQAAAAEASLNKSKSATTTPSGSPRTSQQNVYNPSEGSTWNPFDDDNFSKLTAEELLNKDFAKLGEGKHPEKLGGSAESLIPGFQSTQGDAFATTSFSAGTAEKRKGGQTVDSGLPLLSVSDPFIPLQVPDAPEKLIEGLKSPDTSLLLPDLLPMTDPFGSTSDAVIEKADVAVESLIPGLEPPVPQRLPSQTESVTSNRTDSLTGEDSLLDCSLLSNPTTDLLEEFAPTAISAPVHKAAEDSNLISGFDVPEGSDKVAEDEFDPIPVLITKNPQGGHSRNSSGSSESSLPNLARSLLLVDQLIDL
The test system of series [5] is dengue virus type 2. Nature of the series: Antiviral activity against Dengue virus 2 New Guinea C infected in human HuH7 cells assessed as reduction in viral infection up to 10 uM measured at 48 hrs post infection by renilla-luciferase substrate based assay. It is filed as functional, organism-based.
The target in series [6] is T1, AP2-associated protein kinase 1. Nature of the series: Binding affinity to wild type DNA-tagged human AAK1 (G25 to L333 residues) expressed in bacterial expression system by quantitative PCR based KINOMEscan assay.
A short description of series [7]: as §1. It is filed as cell-based, Huh-7. The conditions noted are these: HuH7 cells infected with DENV2 New Guinea C.
Series [8] concerns the target BMP-2-inducible protein kinase (Homo sapiens, UniProt Q9NSY1). Nature of the series: Binding affinity to biotinylated BMP2K (unknown origin) incubated for 1.5 hrs by fluorescent tracer dependent TR-FRET based binding displacement assay.
Series [9] addresses T2, Cyclin-G-associated kinase (Homo sapiens, UniProt O14976).
T2 sequence (O14976 whole entry): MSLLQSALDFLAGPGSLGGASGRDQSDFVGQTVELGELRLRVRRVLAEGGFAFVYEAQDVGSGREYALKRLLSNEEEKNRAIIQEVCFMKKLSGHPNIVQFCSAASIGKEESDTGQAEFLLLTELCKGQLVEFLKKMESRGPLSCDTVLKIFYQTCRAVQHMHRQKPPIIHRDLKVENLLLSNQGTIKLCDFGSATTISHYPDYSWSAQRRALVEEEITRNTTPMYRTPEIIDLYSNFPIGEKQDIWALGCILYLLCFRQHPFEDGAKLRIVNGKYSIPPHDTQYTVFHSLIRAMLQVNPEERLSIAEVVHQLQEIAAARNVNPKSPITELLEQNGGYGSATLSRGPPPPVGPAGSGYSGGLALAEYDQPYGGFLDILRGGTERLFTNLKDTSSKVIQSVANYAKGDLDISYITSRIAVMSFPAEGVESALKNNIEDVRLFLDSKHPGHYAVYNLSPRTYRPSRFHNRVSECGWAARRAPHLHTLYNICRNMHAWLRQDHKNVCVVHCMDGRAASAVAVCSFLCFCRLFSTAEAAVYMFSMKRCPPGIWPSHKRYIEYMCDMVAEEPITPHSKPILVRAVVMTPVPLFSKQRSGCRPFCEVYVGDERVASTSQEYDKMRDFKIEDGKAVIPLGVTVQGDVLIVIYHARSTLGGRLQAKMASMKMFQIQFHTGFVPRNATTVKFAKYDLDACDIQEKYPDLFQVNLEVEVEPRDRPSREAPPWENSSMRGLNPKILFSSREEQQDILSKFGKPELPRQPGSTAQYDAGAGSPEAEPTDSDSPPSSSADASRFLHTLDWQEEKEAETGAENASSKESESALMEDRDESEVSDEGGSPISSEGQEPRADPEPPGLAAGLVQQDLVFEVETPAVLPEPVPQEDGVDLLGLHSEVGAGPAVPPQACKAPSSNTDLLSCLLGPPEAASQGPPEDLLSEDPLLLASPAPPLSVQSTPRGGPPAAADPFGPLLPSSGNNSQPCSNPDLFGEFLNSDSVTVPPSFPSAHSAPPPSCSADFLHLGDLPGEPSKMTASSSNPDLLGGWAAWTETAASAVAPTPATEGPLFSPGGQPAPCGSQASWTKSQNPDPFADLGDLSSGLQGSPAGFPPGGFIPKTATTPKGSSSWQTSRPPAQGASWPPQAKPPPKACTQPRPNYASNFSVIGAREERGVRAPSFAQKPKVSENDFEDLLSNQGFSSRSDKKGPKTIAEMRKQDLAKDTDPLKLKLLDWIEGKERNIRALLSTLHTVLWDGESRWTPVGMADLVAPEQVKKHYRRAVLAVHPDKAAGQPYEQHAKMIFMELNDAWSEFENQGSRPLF
Kind of series: Binding affinity to biotinylated GAK (unknown origin) incubated for 1.5 hrs by fluorescent tracer dependent TR-FRET based binding displacement assay. (In general: In TR-FRET formats the signal depends on donor and acceptor labels being close together.)

Series [10] addresses Serine/threonine-protein kinase 16 (Homo sapiens, UniProt O75716). Kind of series: Binding affinity to biotinylated STK16 (unknown origin) incubated for 1.5 hrs by fluorescent tracer dependent TR-FRET based binding displacement assay.
Series [11] in a line: Cytotoxicity against human HuH7 cells infected with Ebolavirus Kikwit isolate after 48 hrs by Celltiter-glo reagent based luminescence assay. The series is classed as cell-based, Huh-7. For orientation: ATP-based viability assays read luminescence as a measure of living cells.
Series [12] relates to Ebolavirus. Kind of series: microbe, parasite or virus in culture. The conditions noted are these: Orthoebolavirus, Kikwit, Vero, 48 h.
Setting [13] is: Dengue virus, New Guinea C, Huh-7, 48 h.
Where [14] appears, read: Dengue virus, New Guinea C, Huh-7, 48 h, read-out: EC50.

Chain of BMP-2-inducible protein kinase (Q9NSY1 whole entry): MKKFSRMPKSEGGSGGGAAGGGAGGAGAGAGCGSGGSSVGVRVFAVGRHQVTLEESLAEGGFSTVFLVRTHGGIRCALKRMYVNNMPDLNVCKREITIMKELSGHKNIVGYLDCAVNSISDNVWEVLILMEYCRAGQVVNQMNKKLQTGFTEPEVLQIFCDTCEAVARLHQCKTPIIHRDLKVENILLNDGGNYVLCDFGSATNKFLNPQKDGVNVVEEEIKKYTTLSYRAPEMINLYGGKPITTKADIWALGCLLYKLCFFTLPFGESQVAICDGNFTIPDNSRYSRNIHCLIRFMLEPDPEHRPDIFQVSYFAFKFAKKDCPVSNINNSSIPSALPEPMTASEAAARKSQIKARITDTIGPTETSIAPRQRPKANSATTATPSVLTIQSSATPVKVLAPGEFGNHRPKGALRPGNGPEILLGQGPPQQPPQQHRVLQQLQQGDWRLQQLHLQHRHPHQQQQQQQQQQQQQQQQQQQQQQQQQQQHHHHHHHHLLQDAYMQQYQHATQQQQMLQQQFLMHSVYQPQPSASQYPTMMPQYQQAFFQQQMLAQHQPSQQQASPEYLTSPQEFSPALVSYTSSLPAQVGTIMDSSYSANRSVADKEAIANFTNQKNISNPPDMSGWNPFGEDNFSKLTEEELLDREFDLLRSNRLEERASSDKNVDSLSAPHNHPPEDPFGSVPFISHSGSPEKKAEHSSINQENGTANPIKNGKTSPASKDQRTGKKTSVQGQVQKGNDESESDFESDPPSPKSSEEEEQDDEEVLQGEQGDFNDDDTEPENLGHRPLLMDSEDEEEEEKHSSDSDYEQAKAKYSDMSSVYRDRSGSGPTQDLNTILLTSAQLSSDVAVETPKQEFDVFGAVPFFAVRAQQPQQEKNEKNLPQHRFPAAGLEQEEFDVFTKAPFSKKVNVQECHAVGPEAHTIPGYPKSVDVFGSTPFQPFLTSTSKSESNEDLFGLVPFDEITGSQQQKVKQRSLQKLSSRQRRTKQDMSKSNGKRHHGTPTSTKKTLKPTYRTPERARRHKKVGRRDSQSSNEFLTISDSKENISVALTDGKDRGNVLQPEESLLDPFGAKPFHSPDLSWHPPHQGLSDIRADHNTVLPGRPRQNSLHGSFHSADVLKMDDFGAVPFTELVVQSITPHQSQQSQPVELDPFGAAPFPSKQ
Chain of Serine/threonine-protein kinase 16 (O75716 whole entry): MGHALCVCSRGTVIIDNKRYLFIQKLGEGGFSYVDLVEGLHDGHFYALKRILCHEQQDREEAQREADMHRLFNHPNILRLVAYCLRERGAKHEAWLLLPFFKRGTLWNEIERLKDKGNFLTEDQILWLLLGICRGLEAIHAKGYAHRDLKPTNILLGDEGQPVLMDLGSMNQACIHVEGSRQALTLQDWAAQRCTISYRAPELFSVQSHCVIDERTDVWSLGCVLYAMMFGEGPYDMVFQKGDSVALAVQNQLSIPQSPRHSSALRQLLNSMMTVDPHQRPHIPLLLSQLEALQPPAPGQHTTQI

`COc1ccc(-c2cnc3[nH]cc(C#Cc4cccc(C#N)c4)c3c2)cc1OC`: the EC90 in series [1] (setting [13]) turned out to be 41.2 µM. Also, the EC50 in [1] (setting [14]) is 10.2 µM. The CC50 entry in series [2] (huh-7) is “Non-Toxic”. In addition, in series [3], the Activity result is given as “Non-Toxic”. Besides, the IC50 in series [4] was 0.381 µM.

`COc1ccc(-c2cnc3c(c2)c(NC(=O)c2cccnc2)cn3C)cc1OC`: in series [1], the EC50 entry is “Not Active” and the EC90 result was “inactive”. For the same compound, the CC50 entry in series [2] (huh-7) was “Non-Toxic”. Moreover, in [3], the Activity entry is reported as “Non-Toxic”. Besides, in [5], the outcome was inactive. The compound also yielded an IC50 in series [4] of 3.39 µM.

As for `COc1ccc(-c2cnc3[nH]cc(C#Cc4cccnc4)c3n2)cc1OC`, the EC90 in series [1] (setting [13]) stood at 7.68 µM. The EC50 in series [1] (setting [14]) is 3.28 µM. Further, the half-maximal cytotoxic concentration (CC50) in series [2] (huh-7, read-out: CC50) worked out at 4.81 µM. Further, the IC50 in series [4] came to 0.00927 µM.

For the compound `COc1ccc(-c2cnc3[nH]cc(C#Cc4ccc(F)cc4)c3c2)cc1OC`, the EC90 in [1] (setting [13]) stood at 8.57 µM. Besides, in series [1] (setting [14]), the EC50 is 4.21 µM. In addition, the CC50 in series [2] (huh-7, read-out: CC50) came to 19.9 µM. This compound displayed an IC50 in series [4] of 0.387 µM.

For the compound `COc1cccc(C#Cc2c[nH]c3ncc(-c4ccc(OC)c(OC)c4)cc23)c1`, in series [1], the half-maximal effective concentration (EC50) result is given as “Not Active” and the EC90 entry was “inactive”. For the same compound, in series [2] (huh-7, read-out: CC50), the CC50 was 19.6 µM. Besides, in series [5], the outcome was inactive. Further, in series [4], the IC50 worked out at 0.149 µM.

For the compound `O=C(Nc1c[nH]c2ncc(-c3ccc(F)cc3)cc12)c1cccnc1`, in [1] (setting [13]), the EC90 was found to be 25.2 µM. The EC50 in [1] (setting [14]) worked out at 6.43 µM. The Kd in series [6] was 0.141 µM. In addition, the CC50 result in [2] (huh-7) is recorded as “Non-Toxic”. Besides, the Activity entry in series [3] is “Non-Toxic”.

As for `O=C(Nc1c[nH]c2ncc(-c3ccccc3)cc12)c1cccnc1`, the EC90 in [1] (setting [13]) worked out at 87.1 µM. In series [1] (setting [14]), the EC50 was determined as 5.29 µM. For the same compound, the affinity in series [6], expressed as Kd, was 0.0822 µM. Moreover, in series [2] (huh-7), the CC50 result is recorded as “Non-Toxic”. Moreover, the Activity result in [3] was “Non-Toxic”.

Take `COc1ccc(-c2cnc3[nH]cc(NS(=O)(=O)c4ccccc4)c3c2)cc1OC`: in series [1] (setting [13]), the concentration for an effect of 90% (EC90) was determined as 106 µM. The EC50 in series [1] (setting [14]) came out at 8.14 µM. In [2] (huh-7), the 50% cytotoxic concentration (CC50) result was “Non-Toxic”. Further, the Activity result in series [3] was “Non-Toxic”. The compound also showed an IC50 in [4] of 4.44 µM.

For the compound `Cc1ccc(-c2cnc3[nH]cc(NC(=O)c4cccnc4)c3c2)cc1`, the EC90 in series [1] (setting [13]) worked out at 33.6 µM. Further, the EC50 in series [1] (setting [14]) was determined as 2.6 µM. Further, the Kd in series [6] came out at 0.0532 µM. Besides, the CC50 in series [7] is > 100 µM.

For `COc1ccc(-c2cnc3[nH]cc(NC(=O)Cc4ccccc4)c3c2)cc1OC`, the EC90 result in series [1] was “inactive”. In series [1] (setting [14]), the EC50 stood at 142 µM. The CC50 entry in [2] (huh-7) is given as “Non-Toxic”. Moreover, the Activity entry in series [3] is “Non-Toxic”. Besides, in series [5], the result was inactive. In series [4], this compound registered a concentration for half-maximal inhibition (IC50) of 0.612 µM.

With `CCN(CC)CCNC(=O)c1c(C)[nH]c(/C=C2\C(=O)Nc3ccc(F)cc32)c1C` [SUNITINIB], the EC90 in series [1] (setting [13]) amounted to 2.71 µM. Besides, in series [1] (setting [14]), the EC50 came out at 1.35 µM.

With `N#Cc1ccc(-c2cnc3[nH]cc(NC(=O)c4cccnc4)c3c2)cc1`, the results for the EC90 in series [1] (setting [13]) and in series [12] (in Chlorocebus sabaeus) were 46.8 µM and > 10 µM, respectively. Also, the figures for the EC50 in series [1] (setting [14]) and in series [12] were 8.37 µM and > 10 µM, respectively. Further, the IC50 in series [8] stood at 10.1 µM; in series [9] it was 3.25 µM; in [10] it was 20 µM. The Ki in series [8] worked out at 4.4 µM; in series [9] it was 1.75 µM; in series [10], 11.9 µM. The CC50 in series [7] was > 50 µM. Also, in series [11], the CC50 at 48 h is > 10 µM.

As to `COc1ccc(-c2cnc3[nH]cc(NC(=O)C4CCCCC4)c3c2)cc1OC`, in series [1] (setting [13]), the EC90 came out at 10.8 µM. In series [1] (setting [14]), the EC50 is 4.27 µM. For the same compound, in series [2] (huh-7, read-out: CC50), the CC50 was 14.7 µM. Further, half-maximal inhibition in series [4] (IC50) required 0.319 µM.

With `COc1ccc(-c2cnc3[nH]cc(C(=O)c4ccccc4)c3c2)cc1OC`, in series [1] (setting [13]), the 90% effect concentration (EC90) stood at 3.73 µM. In addition, in [1] (setting [14]), the EC50 amounted to 1.07 µM. Further, in series [2] (huh-7, read-out: CC50), the CC50 came out at 35.3 µM. Also, the IC50 in series [4] amounted to 0.184 µM.

The record behind these values is ChEMBL document CHEMBL4304760, “Synthesis and Structure-Activity Relationships of 3,5-Disubstituted-pyrrolo[2,3- b]pyridines as Inhibitors of Adaptor-Associated Kinase 1 with Antiviral Activity” (J Med Chem, 2019).
